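The compound was tested at five concentrations on cells cultured in 96-well plates, with a 48-hour exposure period. GI50: concentration for 50% inhibition of growth. The concentration for full growth arrest is given as TGI.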
Legend:
Experiment in all cases: NCI tumour cell line growth inhibition, 48 h
[1] = test system: 786-0 renal
[2] = test system: A498 renal
[3] = test system: A549 NSCLC
[4] = test system: ACHN renal
[5] = test system: BT-549 breast
[6] = test system: CAKI-1 renal
[7] = test system: CCRF-CEM leukemia
[8] = test system: COLO 205 colon
[9] = test system: DU-145 prostate
[10] = test system: EKVX NSCLC
[11] = test system: HCC-2998 colon
[12] = test system: HCT-116 colon
[13] = test system: HCT-15 colon
[14] = test system: HL-60(TB) leukemia
[15] = test system: HOP-62 NSCLC
[16] = test system: HOP-92 NSCLC
[17] = test system: HS 578T breast
[18] = test system: HT29 colon
[19] = test system: IGROV1 ovarian
[20] = test system: K-562 leukemia
[21] = test system: KM12 colon
[22] = test system: LOX IMVI melanoma
[23] = test system: M14 melanoma
[24] = test system: MALME-3M melanoma
[25] = test system: MCF7 breast
[26] = test system: MDA-MB-231 breast
[27] = test system: MDA-MB-435
[28] = test system: MDA-MB-468 breast
[29] = test system: MOLT-4 leukemia
[30] = test system: NCI-H226 lung
[31] = test system: NCI-H23 lung
[32] = test system: NCI-H460 lung
[33] = test system: NCI-H522 lung
[34] = test system: NCI/ADR-RES ovarian
[35] = test system: OVCAR-3 ovarian
[36] = test system: OVCAR-4 ovarian
[37] = test system: OVCAR-5 ovarian
[38] = test system: OVCAR-8 ovarian
[39] = test system: PC-3 prostate
[40] = test system: RPMI-8226 leukemia
[41] = test system: RXF 393 renal
[42] = test system: SF-268 CNS
[43] = test system: SF-295 CNS
[44] = test system: SF-539 CNS
[45] = test system: SK-MEL-2 melanoma
[46] = test system: SK-MEL-28 melanoma
[47] = test system: SK-MEL-5 melanoma
[48] = test system: SK-OV-3 ovarian
[49] = test system: SN12C renal
[50] = test system: SNB-19 CNS
[51] = test system: SR leukemia
[52] = test system: SW-620 colon
[53] = test system: T-47D breast
[54] = test system: TK-10 renal
[55] = test system: U251 CNS
[56] = test system: UACC-257 melanoma
[57] = test system: UACC-62 melanoma
[58] = test system: UO-31 renal

Structure (SMILES): Cc1cc2c(c(O)c1Br)-c1ncoc1C(=O)[C@]1(C)CC[C@H](C(C)C)[C@H]21
- GI50 [1]: 7.18 µM
- TGI [1]: 21.9 µM
- GI50 [2]: > 100 µM
- TGI [2]: > 100 µM
- GI50 [3]: 4.33 µM
- TGI [3]: 29.6 µM
- GI50 [4]: 10.1 µM
- TGI [4]: 34 µM
- GI50 [5]: 4.64 µM
- TGI [5]: 17.1 µM
- GI50 [6]: 4.73 µM
- TGI [6]: 33.6 µM
- GI50 [7]: 4.14 µM
- TGI [7]: 27.1 µM
- GI50 [8]: 2.61 µM
- TGI [8]: 10.3 µM
- GI50 [9]: 5 µM
- TGI [9]: 21.2 µM
- GI50 [10]: 6.77 µM
- TGI [10]: 28.6 µM
- GI50 [11]: 4.22 µM
- TGI [11]: 17.7 µM
- GI50 [12]: 3.17 µM
- TGI [12]: 13.8 µM
- GI50 [13]: 2.62 µM
- TGI [13]: 11.8 µM
- GI50 [14]: 2.19 µM
- TGI [14]: 6.69 µM
- GI50 [15]: 4.45 µM
- TGI [15]: 21.7 µM
- GI50 [16]: 1.03 µM
- TGI [16]: 5.99 µM
- GI50 [17]: 5.34 µM
- TGI [17]: > 100 µM
- GI50 [18]: 2.77 µM
- TGI [18]: 16 µM
- GI50 [19]: 4.42 µM
- TGI [19]: 82.4 µM
- GI50 [20]: 2.93 µM
- TGI [20]: 11.6 µM
- GI50 [21]: 3.49 µM
- TGI [21]: 35.6 µM
- GI50 [22]: 3.71 µM
- TGI [22]: 14.5 µM
- GI50 [23]: 2.85 µM
- TGI [23]: 14 µM
- GI50 [24]: 2.61 µM
- TGI [24]: 11.8 µM
- GI50 [25]: 3.45 µM
- TGI [25]: 15.2 µM
- GI50 [26]: 4.36 µM
- TGI [26]: 18.8 µM
- GI50 [27]: 2.07 µM
- TGI [27]: 5.23 µM
- GI50 [28]: 2.14 µM
- TGI [28]: 6.63 µM
- GI50 [29]: 3.18 µM
- TGI [29]: 14.9 µM
- GI50 [30]: 5.88 µM
- TGI [30]: 22.1 µM
- GI50 [31]: 4.64 µM
- TGI [31]: 47.3 µM
- GI50 [32]: 3.33 µM
- TGI [32]: 14.5 µM
- GI50 [33]: 2.18 µM
- TGI [33]: 6.24 µM
- GI50 [34]: 2.82 µM
- TGI [34]: 9.19 µM
- GI50 [35]: 3.83 µM
- TGI [35]: 13.6 µM
- GI50 [36]: 4.1 µM
- TGI [36]: 33.7 µM
- GI50 [37]: 5.36 µM
- TGI [37]: 23.1 µM
- GI50 [38]: 5.45 µM
- TGI [38]: 22.4 µM
- GI50 [39]: 3.1 µM
- TGI [39]: 20.5 µM
- GI50 [40]: 3.35 µM
- TGI [40]: 15.7 µM
- GI50 [41]: 4.16 µM
- TGI [41]: 17.7 µM
- GI50 [42]: 4.27 µM
- TGI [42]: 34.3 µM
- GI50 [43]: 3.31 µM
- TGI [43]: 18 µM
- GI50 [44]: 4.08 µM
- TGI [44]: 14.9 µM
- GI50 [45]: 2.51 µM
- TGI [45]: 8.15 µM
- GI50 [46]: 4.37 µM
- TGI [46]: 18.4 µM
- GI50 [47]: 2.95 µM
- TGI [47]: 10.3 µM
- GI50 [48]: 6.72 µM
- TGI [48]: > 100 µM
- GI50 [49]: 3.19 µM
- TGI [49]: 12.9 µM
- GI50 [50]: 7.35 µM
- TGI [50]: > 100 µM
- GI50 [51]: 2.14 µM
- TGI [51]: 7.25 µM
- GI50 [52]: 3.38 µM
- TGI [52]: 17 µM
- GI50 [53]: 2.89 µM
- TGI [53]: 21.2 µM
- GI50 [54]: 9.26 µM
- TGI [54]: 74.3 µM
- GI50 [55]: 4.34 µM
- TGI [55]: 17.1 µM
- GI50 [56]: 3.58 µM
- TGI [56]: 18.7 µM
- GI50 [57]: 2.46 µM
- TGI [57]: 8.58 µM
- GI50 [58]: 5 µM
- TGI [58]: 24.8 µM

Source: PubChem BioAssay (NCI)
